Measurements as given in the supplement of paper PMC4862054.

How the values were obtained:
Assay in all cases: normalised response (% of control), CellTiter-Glo; higher = more viable cells (100 = DMSO, 0 = benzethonium chloride kill control)
Details in all cases: incubation time: 72 h
HCC1937 = test system: HCC1937
Outline: (§1)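 CellTox Green fluorescence (485/520 nm) and, after 10 min at room temperature, CellTiter-Glo luminescence were read from breast cancer cell lines incubated 72 h in 384-well plates. Cells were seeded as 20 µl suspension onto compound at 5 concentrations in 10-fold steps over a 10,000-fold range chosen per compound. Each plate was normalised to 0.1 % DMSO (100) and a positive kill control (0). Values are normalised signals, one per concentration.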

MDA-MB-231 = test system: MDA-MB-231
Outline: as §1

HDQ-P1 = test system: HDQ-P1
Outline: as §1

Hs578T = test system: Hs578T
Outline: as §1

BT-474 = test system: BT-474
Outline: as §1

CAL-51 = test system: CAL-51
Outline: as §1

HCC1143 = test system: HCC1143
Outline: as §1

CAL-120 = test system: CAL-120
Outline: as §1

CAL-148 = test system: CAL-148
Outline: as §1

CAL-85-1 = test system: CAL-85-1
Outline: as §1

MDA-MB-453 = test system: MDA-MB-453
Outline: as §1

HCC1599 = test system: HCC1599
Outline: as §1

BT-549 = test system: BT-549
Outline: as §1

MCF-10A = test system: MCF-10A
Outline: as §1

With `Cc1c(N)nc([C@H](CC(N)=O)NC[C@H](N)C(N)=O)nc1C(=O)N[C@H](C(=O)N[C@H](C)[C@@H](O)[C@H](C)C(=O)N[C@H](C(=O)NCCc1nc(-c2nc(C(=O)NCCC[S+](C)C)cs2)cs1)[C@@H](C)O)[C@@H](OC1OC(CO)C(O)C(O)C1OC1OC(CO)C(O)C(OC(N)=O)C1O)c1cnc[nH]1` (stereo partly drawn) [Bleomycin] (1000 nM) the normalised response (HCC1937) was 94.2%, the normalised response (MDA-MB-231) was 88.3% and the normalised response (HDQ-P1) was 103%. The normalised response (Hs578T) was 86.5%, the normalised response (BT-474) was 91.3% and the normalised response (CAL-51) was 49%. For the same molecule, the normalised response (HCC1143) was 83.1%, the normalised response (CAL-120) was 91.9% and the normalised response (CAL-148) was 82.1%. The normalised response (CAL-85-1) was 91.9%, the normalised response (MDA-MB-453) was 91% and the normalised response (HCC1599) was 105%. For the same molecule, the normalised response (BT-549) was 66.7% and the normalised response (MCF-10A) was 96%.
In the case of `Cc1cc2c(F)c(Oc3ncnn4cc(OC[C@@H](C)O)c(C)c34)ccc2[nH]1` [Brivanib] (100 nM), the normalised response (HCC1937) is reported as 97.4%, the normalised response (MDA-MB-231) is reported as 107% and the normalised response (HDQ-P1) is reported as 104%. It also gave a normalised response (Hs578T) of 98.8%, a normalised response (BT-474) of 107% and a normalised response (CAL-51) of 80.6%. The normalised response (HCC1143) was 107%, the normalised response (CAL-120) was 109% and the normalised response (CAL-148) was 105%. For the same molecule, the normalised response (CAL-85-1) was 97.1%, the normalised response (MDA-MB-453) was 97% and the normalised response (HCC1599) was 126%. For the same molecule, the normalised response (BT-549) was 94% and the normalised response (MCF-10A) was 111%.
Work on `CCCCCOC(=O)Nc1nc(=O)n([C@@H]2O[C@H](C)[C@@H](O)[C@H]2O)cc1F` [Capecitabine] (1000 nM) yielded a normalised response (HCC1937) of 94%, a normalised response (MDA-MB-231) of 98.2% and a normalised response (HDQ-P1) of 96.2%. For the same molecule, the normalised response (Hs578T) was 107%, the normalised response (BT-474) was 103% and the normalised response (CAL-51) was 112%. The normalised response (HCC1143) was 103%, the normalised response (CAL-120) was 107% and the normalised response (CAL-148) was 98.6%. The normalised response (CAL-85-1) was 92.2%, the normalised response (MDA-MB-453) was 111% and the normalised response (HCC1599) was 104%. For the same molecule, the normalised response (BT-549) was 104% and the normalised response (MCF-10A) was 97%.
Molecule `CC(C)C[C@H](NC(=O)[C@H](CCc1ccccc1)NC(=O)CN1CCOCC1)C(=O)N[C@@H](Cc1ccccc1)C(=O)N[C@@H](CC(C)C)C(=O)[C@@]1(C)CO1` [Carfilzomib] (100 nM) has a normalised response (HCC1937) of 4.85%, a normalised response (MDA-MB-231) of 0.22% and a normalised response (HDQ-P1) of 0.29%. For the same molecule, the normalised response (Hs578T) was 0.88%, the normalised response (BT-474) was 0.61% and the normalised response (CAL-51) was 2.57%. For the same molecule, the normalised response (HCC1143) was 8.24%, the normalised response (CAL-120) was 2.73% and the normalised response (CAL-148) was 0.66%. It also gave a normalised response (CAL-85-1) of 0.78%, a normalised response (MDA-MB-453) of 12.2% and a normalised response (HCC1599) of 52%. It also gave a normalised response (BT-549) of 1.4% and a normalised response (MCF-10A) of 43.6%.
With `Nc1nc(Cl)nc2c1ncn2[C@@H]1O[C@H](CO)[C@@H](O)[C@@H]1F` [Clofarabine] (1000 nM) the normalised response (HCC1937) was 89.9%, the normalised response (MDA-MB-231) was 91% and the normalised response (HDQ-P1) was 79.4%. The normalised response (Hs578T) was 91.9%, the normalised response (BT-474) was 78.7% and the normalised response (CAL-51) was 26.9%. The normalised response (HCC1143) was 44.1%, the normalised response (CAL-120) was 75.3% and the normalised response (CAL-148) was 58.5%. For the same molecule, the normalised response (CAL-85-1) was 47.4%, the normalised response (MDA-MB-453) was 127% and the normalised response (HCC1599) was 61.7%. It also gave a normalised response (BT-549) of 35.7% and a normalised response (MCF-10A) of 68.1%.
With `CCN(CC)CCOc1ccc(C(=C(Cl)c2ccccc2)c2ccccc2)cc1` [Clomifene] (1000 nM) the normalised response (HCC1937) was 93.8%, the normalised response (MDA-MB-231) was 99.2% and the normalised response (HDQ-P1) was 95.9%. For the same molecule, the normalised response (Hs578T) was 94.3%, the normalised response (BT-474) was 98.5% and the normalised response (CAL-51) was 95.2%. The normalised response (HCC1143) was 102%, the normalised response (CAL-120) was 102% and the normalised response (CAL-148) was 106%. The normalised response (CAL-85-1) was 94.2%, the normalised response (MDA-MB-453) was 94.2% and the normalised response (HCC1599) was 92.7%. For the same molecule, the normalised response (BT-549) was 95.5% and the normalised response (MCF-10A) was 101%.
With `C[C@@H]1C[C@H]2[C@@H]3CCC4=CC(=O)C=C[C@]4(C)[C@@]3(F)[C@@H](O)C[C@]2(C)[C@@]1(O)C(=O)CO` [Dexamethasone] (1000 nM) the normalised response (HCC1937) was 98.1%, the normalised response (MDA-MB-231) was 159% and the normalised response (HDQ-P1) was 83.6%. It also gave a normalised response (Hs578T) of 108%, a normalised response (BT-474) of 139% and a normalised response (CAL-51) of 124%. It also gave a normalised response (HCC1143) of 97.6%, a normalised response (CAL-120) of 68.7% and a normalised response (CAL-148) of 92.5%. It also gave a normalised response (CAL-85-1) of 112%, a normalised response (MDA-MB-453) of 84.6% and a normalised response (HCC1599) of 97.8%. It also gave a normalised response (BT-549) of 102% and a normalised response (MCF-10A) of 80.6%.
`CC(C)C(=O)Nc1ccc([N+](=O)[O-])c(C(F)(F)F)c1` [Flutamide] (1000 nM) showed a normalised response (HCC1937) of 96.2%, a normalised response (MDA-MB-231) of 101% and a normalised response (HDQ-P1) of 101%. It also gave a normalised response (Hs578T) of 100%, a normalised response (BT-474) of 103% and a normalised response (CAL-51) of 93.2%. For the same molecule, the normalised response (HCC1143) was 100%, the normalised response (CAL-120) was 94.7% and the normalised response (CAL-148) was 99.9%. It also gave a normalised response (CAL-85-1) of 93.5%, a normalised response (MDA-MB-453) of 99.7% and a normalised response (HCC1599) of 111%. The normalised response (BT-549) was 103% and the normalised response (MCF-10A) was 99.3%.
With `COc1cc2c(Oc3ccc(NC(=O)C4(C(=O)Nc5ccc(F)cc5)CC4)cc3F)ccnc2cc1OCCCN1CCOCC1` [Foretinib] (100 nM) the normalised response (HCC1937) was 98.1%, the normalised response (MDA-MB-231) was 87% and the normalised response (HDQ-P1) was 95.5%. For the same molecule, the normalised response (Hs578T) was 96.1%, the normalised response (BT-474) was 92.3% and the normalised response (CAL-51) was 99.5%. The normalised response (HCC1143) was 93.8%, the normalised response (CAL-120) was 93.9% and the normalised response (CAL-148) was 102%. It also gave a normalised response (CAL-85-1) of 98%, a normalised response (MDA-MB-453) of 85.6% and a normalised response (HCC1599) of 89.8%. For the same molecule, the normalised response (BT-549) was 114% and the normalised response (MCF-10A) was 95.1%.
`NC(=O)NO` [Hydroxyurea] (10000 nM) gave a normalised response (HCC1937) of 98.4%, a normalised response (MDA-MB-231) of 103% and a normalised response (HDQ-P1) of 100%. The normalised response (Hs578T) was 109%, the normalised response (BT-474) was 92.7% and the normalised response (CAL-51) was 45.2%. For the same molecule, the normalised response (HCC1143) was 105%, the normalised response (CAL-120) was 95.7% and the normalised response (CAL-148) was 101%. It also gave a normalised response (CAL-85-1) of 98.2%, a normalised response (MDA-MB-453) of 114% and a normalised response (HCC1599) of 111%. The normalised response (BT-549) was 90.8% and the normalised response (MCF-10A) was 109%.
In the case of `O=NN(CCCl)C(=O)NC1CCCCC1` [Lomustine] (1000 nM), the normalised response (HCC1937) is reported as 102%, the normalised response (MDA-MB-231) is reported as 98.5% and the normalised response (HDQ-P1) is reported as 102%. The normalised response (Hs578T) was 101%, the normalised response (BT-474) was 101% and the normalised response (CAL-51) was 112%. The normalised response (HCC1143) was 98.1%, the normalised response (CAL-120) was 100% and the normalised response (CAL-148) was 95.3%. The normalised response (CAL-85-1) was 94.1%, the normalised response (MDA-MB-453) was 113% and the normalised response (HCC1599) was 128%. The normalised response (BT-549) was 107% and the normalised response (MCF-10A) was 105%.
`O=C(O)CC[C@H]1CC[C@@](c2cc(F)ccc2F)(S(=O)(=O)c2ccc(Cl)cc2)CC1` [MK-0752] (100 nM) was tested, and the normalised response (HCC1937) was 98.5%, the normalised response (MDA-MB-231) was 104% and the normalised response (HDQ-P1) was 95.6%. For the same molecule, the normalised response (Hs578T) was 103%, the normalised response (BT-474) was 98.7% and the normalised response (CAL-51) was 113%. For the same molecule, the normalised response (HCC1143) was 108%, the normalised response (CAL-120) was 95.6% and the normalised response (CAL-148) was 95.4%. For the same molecule, the normalised response (CAL-85-1) was 92%, the normalised response (MDA-MB-453) was 108% and the normalised response (HCC1599) was 109%. It also gave a normalised response (BT-549) of 91.6% and a normalised response (MCF-10A) of 109%.
